Results on seven molecules are retold here after paper PMC11048362, “Conformational Modulation of Tissue Transglutaminase via Active Site Thiol Alkylating Agents: Size Does Not Matter” (Biomolecules, 2024).

The target of this test is T1, TG2 (human tissue transglutaminase) (Homo sapiens, UniProt P21980).
T1 construct: gene TGM2; recombinant, expressed in and purified from E. coli as previously described; catalytic Cys277
T1 sequence (P21980 2-687): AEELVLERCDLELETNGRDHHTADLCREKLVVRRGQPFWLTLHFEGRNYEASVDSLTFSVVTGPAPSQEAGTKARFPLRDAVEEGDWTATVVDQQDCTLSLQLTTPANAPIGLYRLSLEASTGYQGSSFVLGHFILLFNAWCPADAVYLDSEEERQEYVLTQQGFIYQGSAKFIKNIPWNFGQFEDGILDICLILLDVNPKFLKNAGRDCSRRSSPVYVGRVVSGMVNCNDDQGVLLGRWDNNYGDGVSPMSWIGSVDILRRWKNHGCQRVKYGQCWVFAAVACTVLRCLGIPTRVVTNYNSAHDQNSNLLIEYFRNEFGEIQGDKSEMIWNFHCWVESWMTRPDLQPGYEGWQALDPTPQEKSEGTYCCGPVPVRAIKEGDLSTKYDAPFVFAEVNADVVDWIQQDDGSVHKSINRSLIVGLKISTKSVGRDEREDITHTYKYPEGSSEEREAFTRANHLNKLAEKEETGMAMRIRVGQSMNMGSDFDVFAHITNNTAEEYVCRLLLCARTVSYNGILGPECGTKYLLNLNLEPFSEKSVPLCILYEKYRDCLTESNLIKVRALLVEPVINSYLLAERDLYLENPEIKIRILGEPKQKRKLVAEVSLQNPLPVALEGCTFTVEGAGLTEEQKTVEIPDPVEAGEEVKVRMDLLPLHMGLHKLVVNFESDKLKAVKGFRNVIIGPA
Kind of test: colorimetric AL5 hydrolysis at […] nm, Kitz and Wilson time-dependent inactivation, saturation fit. The class given is biochemical. Conditions: covalent (Cys277), irreversible; 100 µM AL5, corrected for substrate competition; 50 mM MOPS pH 6.91, 15.5 mM CaCl2, 25 °C.
As to `C=CC(=O)NCC(=O)N1CCN(C(=O)C23CC4CC(CC(C4)C2)C3)CC1` [compound 1, 1], the KI (inactivation) was determined as 3.2 ± 1 µM.

`C=CC(=O)NCC(=O)N1CCN(C(=O)OC(C)(C)C)CC1` [compound 2, 2]: the KI (inactivation) was determined as 129 ± 53 µM.

As for `C=CC(=O)NCC(=O)N1CCN(C(C)=O)CC1` [compound 3, 3], the KI (inactivation) stood at 96 ± 17 µM.

The molecule `C=CC(=O)N1CCN(C(=O)C23CC4CC(CC(C4)C2)C3)CC1` [compound 4, 4] gave a KI (inactivation) of 118 ± 59 µM.

`C=CC(=O)NCC(=O)N1CCOCC1` [compound 5, 5] gave a KI (inactivation) of 487 ± 161 µM.

For the molecule `C=CC(=O)NCC(N)=O` [compound 6, 6], the KI (inactivation) was determined as 842 ± 25 µM.

In turn, `C=CC(N)=O` [compound 8, acrylamide] returned a KI (inactivation) of 148 ± 68 µM.
